Results: patent publication US20250164502A1, “Mutant Human Nax Proteins and Screening Methods” (Genentech, Inc., priority 2021, published 2025)

Key:
human NaX-QTT = molecular target: T1, human NaX-QTT (Homo sapiens, UniProt Q01118, F724Q/I1189T/I1492T); test: Two-electrode voltage-clamp of Xenopus laevis oocytes expressing human NaX-QTT with blockers or multivalent cations; type: cell-based; settings: for inhibition of NaX-QTT currents: oocytes
T1 construct: expressed in transfected cells; host or cells: Xenopus laevis oocytes injected with in vitro transcribed capped RNA
Procedure: FIGS. 5A-C show pharmacology of the human NaX-QTT channel. FIG. 5A, left and middle panels, show representative I-V currents from HEK293 cells expressing human NaX-QTT with indicated extracellular monovalent cations with or without indicated amounts of CaCl2 in the extracellular solution. Voltage ramp from −80 to +80 mV was applied.
(§1) Oocytes were prepared as previously described^68. Healthy-looking stage V-VI oocytes were injected with 2.5-40 ng of RNA (in 5-41 nL) using a Nanoliter 2010 injector (World Precision Instruments). When excluding one or more construct, an equivalent volume of nuclease-free water was added to maintain a constant RNA concentration across different construct combinations. Injected oocytes were kept at 18° C., 140 rpm, in ND96 supplemented with 50 μg/mL gentamicin and 50 μg/mL tetracycline (in mM: 96 NaCl, 2 KCl, 1 MgCl2, 1.8 CaCl2), 2.5 sodium pyruvate, 0.5 theophylline, 5 HEPES; pH 7.4 with NaOH) for two to five days. Two-electrode voltage-clamp measurements were performed at room temperature using a Warner OC-725C Oocyte Clamp amplifier (Warner Instrument Corp, USA) and under constant perfusion with ND96 solution (in mM: 96 NaCl, 2 KCl, 1 MgCl2, 1.8 CaCl2, 5 HEPES; pH 7.4 with NaOH). For ion selectivity experiments, external solutions contained 115 mM of test cations as chloride salts, 1.2 mM CaCl2, 2 mM MgCl2, 5 mM HEPES (pH 7.4 with the corresponding hydroxide). Data acquisition was performed using a Digidata 1550 digitizer (Molecular devices; sampled at 10 kHz) and pCLAMP 10 software (Molecular Devices). Microelectrodes from borosilicate glass capillaries (Harvard Apparatus) were prepared to have resistances around 0.2-1.0 MQ2 using a P-1000 Flaming/Brown Micropipette Puller System (Sutter Instrument) and backfilled with 3 M KCl. Aconitine and veratridine (Alomone Labs) were dissolved in DMSO to make 50 mM stocks, and were further diluted to 300 and 100 μM in ND96 for electrophysiological experiments. Other NaV activators (Alomone Labs; FIGS. 8A-D) were dissolved in water to make stock solutions. The voltage dependence of ion current was determined using a protocol consisting of steps from a holding potential of 0 mV to voltages ranging from +80 to −100 mV for 1 s in 20 mV increment.

Xenopus laevis oocytes [1] = test: Current amplitude of Xenopus laevis oocytes expressing the constructs (function of construct); type: cell-based; settings: voltage-step protocols
Procedure: (*p<0.05; **p<0.01; ****p<0.0001; one-way ANOVA, Dunnett's test against NaX.)
as §1, with “Data acquisition was performed using a Digidata 1550 digitizer (Molecular devices; sampled at 10 kHz) and pCLAMP 10 software (Molecular Devices). Microelectrodes from borosilicate glass capillaries (Harvard Apparatus) were prepared to have resistances around 0.2-1.0 MQ2 using a P-1000 Flaming/Brown Micropipette Puller System (Sutter Instrument) and backfilled with 3 M KCl. Aconitine and veratridine (Alomone Labs) were dissolved in DMSO to make 50 mM stocks, and were further diluted to 300 and 100 μM in ND96 for electrophysiological experiments. Other NaV activators (Alomone Labs; FIGS. 8A-D) were dissolved in water to make stock solutions.” left out, “increment. […]” for “increment.”

HEK293T cells = test: Whole-cell patch clamp of HEK293T cells expressing NaX-QTT, reversal potential and ion selectivity; type: cell-based, human
Procedure: HEK293T cells expressing NaX- or NaX-QTT-eGFP-2×FLAG were seeded on glass cover slips an hour before whole-cell patch-clamping experiments. For a more physiological condition (FIGS. 4D and 7B), the extracellular solution contained 150 mM NaCl, 5 mM KCl, 0.5 mM CaCl2, 1.2 mM MgCl2, 10 mM HEPES, and 13 mM D-(+)-glucose (pH 7.4) with NaOH, ˜320 mOsm/L, and the intracellular solution contained 140 mM CsCl, 10 mM CsF, 5 mM EGTA, 10 mM HEPES, and 2 mM Na2ATP (pH 7.2) with CsOH, ˜304 mOsm/L. To determine if NaX-QTT was cation-permeable, we first substituted all extracellular cations with NMDG^+ (FIG. 4E). Extracellular solution contained 150 mM NMDG and 10 mM HEPES (D-(+)-glucose was added accordingly to achieve osmolarity ˜325 mOsm/L and pH was adjusted to 7.4 with hydrochloric acid). To determine if NaX-QTT was anion-permeable, we substituted all Cl^− ions in both intra- and extracellular solutions with the large anion methanesulfonate (MS^−) (FIG. 15C). The extracellular solution contained 150 mM NaMS and 10 mM HEPES (D-(+)-glucose was added accordingly to achieve osmolarity ˜325 mOsm/L, and pH was adjusted to 7.4 with NaOH). The intracellular solution contained 136 mM NaMS, 10 mM NaF, 5 mM EGTA, 10 mM HEPES, and 2 mM Na2ATP (pH 7.2 with NaOH, ˜309 mOsm/L). The extracellular NMDG solution contained 150 NMDG and 10 mM HEPES (D-(+)-glucose was added accordingly to achieve osmolarity ˜325 mOsm/L, and pH was adjusted to 7.4 with methanesulfonic acid).
For ion-selectivity experiments (FIGS. 4E and 5A) (i) involving monovalent cations, the extracellular solution contained 150 mM XCl, 10 mM HEPES, and D-(+)-glucose was added accordingly to achieve osmolarity ˜325 mOsm/L, and the pH was adjusted to 7.4 with XOH, where X indicates the cation of interest (Na^+, K^+, Li+ or Cs+); (ii) involving Ca^2+, the extracellular solution contained 110 mM CaCl2, 10 mM HEPES, and D-(+)-glucose was added accordingly to achieve osmolarity ˜325 mOsm/L, and the pH was adjusted to 7.4 with Ca(OH)2; (iii) the intracellular solution contained 136 mM NaCl, 10 mM NaF, 5 mM EGTA, 10 mM HEPES, and 2 mM Na2ATP (pH 7.2) with NaOH, ˜309 mOsm/L.
For data analysis, raw current traces were typically filtered using 8-pole Bessel low-pass filter at 500-800 Hz. […] For ion-selectivity experiments performed with Na^+ intracellular solution (FIGS. 4E and 5A), liquid junction potential (LJP) was measured with reference to the Na^+ intracellular solution and corrected after recording. Relative ion permeabilities (PNa/PX) were calculated using the equation PX/PNa=[Na^+]IC exp(ErevF/RT)/[X^+]EC (X=Na, K, Li or Cs), where F is Faraday's constant, R is the gas constant, […], and Erevs were measured from the −80- to +80-m V ramp (corrected for LJP).

[2] = reported for pathogenic mutation; cited from earlier work
Xenopus laevis oocytes [3] = test: Voltage dependence of activation and steady-state inactivation of mutant NaV channels; type: cell-based; settings: NaV1.7 mutant

T1 sequence (Q01118 whole entry F724Q/I1189T/I1492T): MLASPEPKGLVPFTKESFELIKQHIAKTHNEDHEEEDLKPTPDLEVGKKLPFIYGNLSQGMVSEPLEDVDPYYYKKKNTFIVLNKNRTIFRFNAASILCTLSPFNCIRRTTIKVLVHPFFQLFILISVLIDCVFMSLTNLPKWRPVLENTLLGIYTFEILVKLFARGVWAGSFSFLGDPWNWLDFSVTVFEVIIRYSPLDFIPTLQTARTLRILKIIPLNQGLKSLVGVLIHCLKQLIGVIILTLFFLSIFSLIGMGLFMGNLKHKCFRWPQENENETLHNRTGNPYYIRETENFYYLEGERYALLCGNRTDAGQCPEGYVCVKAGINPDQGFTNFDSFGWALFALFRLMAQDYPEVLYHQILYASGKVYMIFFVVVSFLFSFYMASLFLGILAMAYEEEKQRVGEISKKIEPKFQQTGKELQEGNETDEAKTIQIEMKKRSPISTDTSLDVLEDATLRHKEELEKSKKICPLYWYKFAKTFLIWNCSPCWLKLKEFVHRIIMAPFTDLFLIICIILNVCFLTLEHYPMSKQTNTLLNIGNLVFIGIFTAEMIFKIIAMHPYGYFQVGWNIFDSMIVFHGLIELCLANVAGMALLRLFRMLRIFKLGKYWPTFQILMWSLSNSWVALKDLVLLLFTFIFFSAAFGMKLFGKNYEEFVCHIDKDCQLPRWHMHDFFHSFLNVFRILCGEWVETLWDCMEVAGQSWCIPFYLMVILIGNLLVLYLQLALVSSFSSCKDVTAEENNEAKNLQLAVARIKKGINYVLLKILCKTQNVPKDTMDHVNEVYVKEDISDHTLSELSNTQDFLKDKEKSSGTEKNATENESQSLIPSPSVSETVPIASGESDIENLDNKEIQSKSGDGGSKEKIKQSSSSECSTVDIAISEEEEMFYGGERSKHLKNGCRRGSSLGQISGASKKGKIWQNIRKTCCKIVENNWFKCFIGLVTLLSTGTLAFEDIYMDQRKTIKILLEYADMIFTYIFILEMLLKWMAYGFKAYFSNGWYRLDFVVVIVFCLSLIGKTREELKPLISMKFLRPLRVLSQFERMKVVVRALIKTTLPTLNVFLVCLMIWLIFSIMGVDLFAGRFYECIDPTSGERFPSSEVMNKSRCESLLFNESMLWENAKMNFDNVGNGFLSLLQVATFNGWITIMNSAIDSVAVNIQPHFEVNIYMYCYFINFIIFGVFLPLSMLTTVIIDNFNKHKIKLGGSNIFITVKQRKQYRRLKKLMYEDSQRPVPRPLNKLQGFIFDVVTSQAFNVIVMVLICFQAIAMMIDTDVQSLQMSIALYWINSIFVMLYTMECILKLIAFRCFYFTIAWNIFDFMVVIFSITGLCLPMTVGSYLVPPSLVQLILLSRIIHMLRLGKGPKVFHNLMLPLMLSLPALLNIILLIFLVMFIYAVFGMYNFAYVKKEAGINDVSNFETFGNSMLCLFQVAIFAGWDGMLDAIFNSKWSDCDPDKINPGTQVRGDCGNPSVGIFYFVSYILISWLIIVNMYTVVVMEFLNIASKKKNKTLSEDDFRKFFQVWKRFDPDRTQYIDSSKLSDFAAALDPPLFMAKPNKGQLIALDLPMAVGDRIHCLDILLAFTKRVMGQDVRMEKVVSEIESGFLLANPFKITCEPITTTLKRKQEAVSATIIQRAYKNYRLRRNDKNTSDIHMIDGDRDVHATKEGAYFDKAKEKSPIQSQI

C=C[C@H]1C[N@@]2CC[C@H]1C[C@@H]2[C@@H](O)c1ccnc2ccc(OC)cc12 [quinidine]
inhibition of NaX-QTT currents (human NaX-QTT; at high μM concentrations): equally potent inhibitors

COc1ccccc1OCC(O)CN1CCN(CC(=O)Nc2c(C)cccc2C)CC1 (stereo not shown) [ranolazine]
inhibition of NaX-QTT currents (human NaX-QTT; at concentrations up to 300 μM): strong inhibitory effects were not observed

NC1=N[C@H](O)[C@H]2[C@H]3O[C@]4(O)O[C@@H]([C@@H](O)[C@@]2(N1)[C@@H]4O)[C@]3(O)CO [tetrodotoxin]
inhibitory effect on NaX-QTT (human NaX-QTT): inhibitory effects

Construct 24: triple-mutant NaX channel construct (F724Q-I1189T-I1492T) with polar substitutions at three S6-gate lining positions
ionic currents of the construct expressed alone (Xenopus laevis oocytes [1]): robust ionic currents | reversal potential (HEK293T cells; HEK293T cells, all extracellular cations replaced with NMDG): below −100 mV | reversal potential (HEK293T cells; HEK293T cells, physiological extracellular solution): +5 mV | discrimination between monovalent cations (HEK293T cells; extracellular monovalent cations 150 mM): does not effectively discriminate | reversal potential (HEK293T cells; symmetrical NaCl/NaCl, ramp −80 to +80 mV, 150 mM Na^+ intracellular): ~0 mV

Construct 25: L390E/I1189E/I1492E triple-mutant NaX channel construct
ionic currents of the construct expressed alone (Xenopus laevis oocytes [1]): much lower current amplitudes

Ser211Pro: pathogenic Ser211Pro mutation in NaV1.7
hyperpolarization of channel activation [2]: −12 mV

Ser1269Phe: Ser1269Phe substitution in NaV1.7
depolarizing shift of activation (Xenopus laevis oocytes [3]): ~8 mV

ΔLeu966: in-frame DII-S6 deletion in NaV1.7
hyperpolarization of activation (Xenopus laevis oocytes [3]): −16 mV

B1: Ser209Phe: pathogenic Ser209Phe mutation in KCNQ1 (protein, UniProt P51787 1-676, looked up, variant S209F)
Potassium voltage-gated …: MAAASSPPRAERKRWGWGRLPGARRGSAGLAKKCPFSLELAEGGPAGGALYAPIAPGAPGPAPPASPAAPAAPPVASDLGPRPPVSLDPRVSIYSTRRPVLARTHVQGRVYNFLERPTGWKCFVYHFAVFLIVLVCLIFSVLSTIEQYAALATGTLFWMEIVLVVFFGTEYVVRLWSAGCRSKYVGLWGRLRFARKPISIIDLIVVVAFMVVLCVGSKGQVFATSAIRGIRFLQILRMLHVDRQGGTWRLLGSVVFIHRQELITTLYIGFLGLIFSSYFVYLAEKDAVNESGRVEFGSYADALWWGVVTVTTIGYGDKVPQTWVGKTIASCFSVFAISFFALPAGILGSGFALKVQQKQRQKHFNRQIPAAASLIQTAWRCYAAENPDSSTWKIYIRKAPRSHTLLSPSPKPKKSVVVKKKKFKLDKDNGVTPGEKMLTVPHITCDPPEERRLDHFSVDGYDSSVRKSPTLLEVSMPHFMRTNSFAEDLDLEGETLLTPITHISQLREHHRATIKVIRRMQYFVAKKKFQQARKPYDVRDVIEQYSQGHLNLMVRIKELQRRLDQSIGKPSLFISVSEKSKDRGSNTIGARLNRVEDKVTQLDQRLALITDMLHQLLSLHGGSTPGSGGPPREGGAHITQPCGSGGSVDPELFLPSNTLPTYEQLTVPRRGPDEGS
hyperpolarization of channel activation [2]: −45 mV
